Molecular target: T1, human full-length recombinant PKC βII (Homo sapiens, UniProt P05771)
T1 construct: Active human full-length recombinant PKC βII; purchased Invitrogen GmbH, Darmstadt, Germany
Assay: Determination of PKC βII inhibition (Caliper mobility-shift kinase assay, Fluorescein-RFARKGSLRQKNV peptide substrate)
Format: biochemical
Settings: example compounds at a final concentration of 1.14 μM (±0.15 μM)
In short: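 Full-length PKC βII (30 ng/ml in pre-dilution) with PS/DAG/Ca2+ activators, pH 7.4; fluorescein peptide and ATP at 3 μM and 120 μM before mixing. Reaction ran 60 min at 32 °C, was EDTA-stopped, and was read by mobility shift. % inhibition came from product/(substrate+product) peak heights, tested at 1.14 μM final.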

T1 sequence (P05771 1-673 isoform P05771-2): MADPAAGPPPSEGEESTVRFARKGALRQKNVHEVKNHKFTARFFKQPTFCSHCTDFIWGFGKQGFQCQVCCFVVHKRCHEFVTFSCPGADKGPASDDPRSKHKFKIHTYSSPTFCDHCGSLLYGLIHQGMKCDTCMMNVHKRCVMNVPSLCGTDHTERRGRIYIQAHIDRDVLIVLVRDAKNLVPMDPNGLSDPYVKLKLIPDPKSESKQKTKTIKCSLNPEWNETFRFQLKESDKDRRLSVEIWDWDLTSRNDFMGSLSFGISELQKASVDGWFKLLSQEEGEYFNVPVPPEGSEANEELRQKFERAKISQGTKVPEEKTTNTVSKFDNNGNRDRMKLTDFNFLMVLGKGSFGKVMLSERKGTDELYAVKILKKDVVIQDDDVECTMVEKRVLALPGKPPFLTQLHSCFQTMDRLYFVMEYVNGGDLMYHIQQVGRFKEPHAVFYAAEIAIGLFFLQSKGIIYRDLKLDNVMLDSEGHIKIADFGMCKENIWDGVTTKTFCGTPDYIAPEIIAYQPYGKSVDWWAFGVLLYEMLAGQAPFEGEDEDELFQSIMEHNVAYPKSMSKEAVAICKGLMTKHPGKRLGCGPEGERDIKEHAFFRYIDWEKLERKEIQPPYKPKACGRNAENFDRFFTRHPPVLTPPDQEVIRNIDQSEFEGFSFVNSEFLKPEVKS

Compound `N[C@H]1CCN(C(=O)c2cc(-c3ccc(O)cc3)nc3[nH]nc(C(F)(F)F)c23)C1` [Example 404, ((S)-3-Amino-pyrrolidin-1-yl)-[6-(4-hydroxy-phenyl)-3-trifluoromethyl-1H-pyrazolo[3,4-b]pyridin-4-yl]-methanone] has an inhibition at 1.14 µM of 31%.
`CCC(CCN)NC(=O)c1cc(-c2ccc(O)cc2)nc2[nH]nc(C)c12` (centres unmarked) [Example 127, 6-(4-Hydroxy-phenyl)-3-methyl-1H-pyrazolo[3,4-b]pyridine-4-carboxylic acid (3-amino-1-ethyl-propyl)-amide] was tested, and the inhibition at 1.14 µM was 90%.
In the case of `CCC1(CC)CNCCN1C(=O)c1cc(-c2ccc(O)cc2F)nc2[nH]nc(C)c12` [Example 436, (2,2-Diethyl-piperazin-1-yl)-[6-(2-fluoro-4-hydroxy-phenyl)-3-methyl-1H-pyrazolo[3,4-b]pyridin-4-yl]-methanone], the inhibition at 1.14 µM is reported as 100%.
Work on `Cc1n[nH]c2nc(-c3ccc(O)c(F)c3)cc(C(=O)NCC3CCNC3)c12` (centres unmarked) [Example 354, 6-(3-Fluoro-4-hydroxy-phenyl)-3-methyl-1H-pyrazolo[3,4-b]pyridine-4-carboxylic acid (pyrrolidin-3-ylmethyl)-amide] yielded an inhibition at 1.14 µM of 52%.
In the case of `Cc1n[nH]c2nc(-c3ccc(O)cc3)cc(C(=O)N3CCCC(C)(N)C3)c12` (centres unmarked) [Example 117, (3-Amino-3-methyl-piperidin-1-yl)-[6-(4-hydroxy-phenyl)-3-methyl-1H-pyrazolo[3,4-b]pyridin-4-yl]-methanone], the inhibition at 1.14 µM is reported as 89%.
In the case of `Cc1n[nH]c2nc(-c3ccc(O)cc3F)cc(C(=O)N3C[C@@H](C)N(Cc4ccccn4)C[C@@H]3C)c12` [Example 452, ((2S,5R)-2,5-Dimethyl-4-pyridin-2-ylmethyl-piperazin-1-yl)-[6-(2-fluoro-4-hydroxy-phenyl)-3-methyl-1H-pyrazolo[3,4-b]pyridin-4-yl]-methanone], the inhibition at 1.14 µM is reported as 83%.
Compound `Cc1n[nH]c2nc(-c3ccc(O)cc3F)cc(C(=O)N3CCNC[C@H]3c3ccccc3)c12` [Example 57, [6-(2-Fluoro-4-hydroxy-phenyl)-3-methyl-1H-pyrazolo[3,4-b]pyridin-4-yl]-((R)-2-phenyl-piperazin-1-yl)-methanone] has an inhibition at 1.14 µM of 99%.
`Cc1n[nH]c2nc(-c3ccc(O)c(F)c3)cc(C(=O)N3CCNC(C(F)(F)F)C3)c12` (centres unmarked) [Example 314, [6-(3-Fluoro-4-hydroxy-phenyl)-3-methyl-1H-pyrazolo[3,4-b]pyridin-4-yl]-(3-trifluoromethyl-piperazin-1-yl)-methanone] showed an inhibition at 1.14 µM of 35%.
`Cc1n[nH]c2nc(-c3ccc(O)cc3)cc(C(=O)N3CCNCC3c3cccc(C(F)(F)F)c3)c12` (centres unmarked) [Example 99, [6-(4-Hydroxy-phenyl)-3-methyl-1H-pyrazolo[3,4-b]pyridin-4-yl]-[2-(3-trifluoromethyl-phenyl)-piperazin-1-yl]-methanone] showed an inhibition at 1.14 µM of 97%.
With `Cc1n[nH]c2nc(-c3ccc(O)cc3F)cc(C(=O)N3C[C@@H](c4ccccc4)NC[C@@H]3C)c12` (single isomer, unassigned) [Example 460, [6-(2-Fluoro-4-hydroxy-phenyl)-3-methyl-1H-pyrazolo[3,4-b]pyridin-4-yl]-(trans-2-methyl-5-phenyl-piperazin-1-yl)-methanone] the “% Inhibition” value was 61%.
Compound `Cc1n[nH]c2nc(-c3ccc(O)cc3)cc(C(=O)N3CCNC[C@@H]3Cc3ccccc3)c12` [Example 225, ((S)-2-Benzyl-piperazin-1-yl)-[6-(4-hydroxy-phenyl)-3-methyl-1H-pyrazolo[3,4-b]pyridin-4-yl]-methanone] has an inhibition at 1.14 µM of 85%.
For `CC[C@@H]1CN(C(=O)c2cc(-c3ccc(O)cc3F)nc3[nH]nc(C)c23)[C@@H](C)CN1` [Example 446, ((2S,5R)-5-Ethyl-2-methyl-piperazin-1-yl)-[6-(2-fluoro-4-hydroxy-phenyl)-3-methyl-1H-pyrazolo[3,4-b]pyridin-4-yl)-methanone], the inhibition at 1.14 µM was 98%.
Work on `Cc1n[nH]c2nc(-c3ccc(O)c(F)c3)cc(C(=O)N3CCNCC3)c12` [Example 7, [6-(3-Fluoro-4-hydroxy-phenyl)-3-methyl-1H-pyrazolo[3,4-b]pyridin-4-yl]-piperazin-1-yl-methanone] yielded an inhibition at 1.14 µM of 91%.
In the case of `Cc1n[nH]c2nc(-c3ccc(O)cc3)cc(C(=O)N3CCN(C4CCC4)CC3)c12` [Example 39, (4-Cyclobutyl-piperazin-1-yl)-[6-(4-hydroxy-phenyl)-3-methyl-1H-pyrazolo[3,4-b]pyridin-4-yl]-methanone], the inhibition at 1.14 µM is reported as 45%.
With `CCC(CCN)NC(=O)c1cc(-c2ccc(O)cc2F)nc2[nH]nc(C)c12` (centres unmarked) [Example 65, 6-(2-Fluoro-4-hydroxy-phenyl)-3-methyl-1H-pyrazolo[3,4-b]pyridine-4-carboxylic acid (3-amino-1-ethyl-propyl)-amide] the inhibition at 1.14 µM was 94%.
Compound `Cc1n[nH]c2nc(-c3ccc(O)cc3)cc(C(=O)N3CCC(CN)(c4ccccc4)CC3)c12` [Example 34, (4-Aminomethyl-4-phenyl-piperidin-1-yl)-[6-(4-hydroxy-phenyl)-3-methyl-1H-pyrazolo[3,4-b]pyridin-4-yl]-methanone] has an inhibition at 1.14 µM of 69%.
`Cc1n[nH]c2nc(-c3ccc(O)c(F)c3)cc(C(=O)N3CC[C@H](N(C)C)C3)c12` [Example 348, ((S)-3-Dimethylamino-pyrrolidin-1-yl)-[6-(3-fluoro-4-hydroxy-phenyl)-3-methyl-1H-pyrazolo[3,4-b]pyridin-4-yl]-methanone] gave an inhibition at 1.14 µM of 44%.
For `Cc1n[nH]c2nc(-c3ccc(O)cc3)cc(C(=O)NC3CCN(C4CCCCC4)CC3)c12` [Example 279, 6-(4-Hydroxy-phenyl)-3-methyl-1H-pyrazolo[3,4-b]pyridine-4-carboxylic acid (1-cyclohexyl-piperidin-4-yl)-amide], the inhibition at 1.14 µM was 78%.
Compound `Cc1n[nH]c2nc(-c3ccc(O)cc3)cc(C(=O)NC(CN3CCCC3)c3ccccc3)c12` (centres unmarked) [Example 377, 6-(4-Hydroxy-phenyl)-3-methyl-1H-pyrazolo[3,4-b]pyridine-4-carboxylic acid (1-phenyl-2-pyrrolidin-1-yl-ethyl)-amide] has an inhibition at 1.14 µM of 69%.
For `COc1cccc(C2CNCCN2C(=O)c2cc(-c3ccc(O)cc3)nc3[nH]nc(C)c23)c1` (centres unmarked) [Example 72, [6-(4-Hydroxy-phenyl)-3-methyl-1H-pyrazolo[3,4-b]pyridin-4-yl]-[2-(3-methoxy-phenyl)-piperazin-1-yl]-methanone], the inhibition at 1.14 µM was 94%.
Work on `Cc1n[nH]c2nc(-c3ccc(O)c(F)c3)cc(C(=O)NC3CN4CCC3CC4)c12` (centres unmarked) [Example 333, 6-(3-Fluoro-4-hydroxy-phenyl)-3-methyl-1H-pyrazolo[3,4-b]pyridine-4-carboxylic acid (1-aza-bicyclo[2.2.2]oct-3-yl)-amide] yielded an inhibition at 1.14 µM of 67%.
`Cc1n[nH]c2nc(-c3ccc(O)c(F)c3)cc(C(=O)N3CCNCC3Cc3ccccc3)c12` (centres unmarked) [Example 300, (2-Benzyl-piperazin-1-yl)-[6-(3-fluoro-4-hydroxy-phenyl)-3-methyl-1H-pyrazolo[3,4-b]pyridin-4-yl]-methanone] showed an inhibition at 1.14 µM of 74%.
With `Cc1n[nH]c2nc(-c3ccc(O)c(F)c3)cc(C(=O)N3CCCN(C)CC3)c12` [Example 365, [6-(3-Fluoro-4-hydroxy-phenyl)-3-methyl-1H-pyrazolo[3,4-b]pyridin-4-yl]-(4-methyl-[1,4]diazepan-1-yl)-methanone] the inhibition at 1.14 µM was 41%.
`Cc1n[nH]c2nc(-c3ccc(O)cc3)cc(C(=O)N3CC(C)NCC3c3ccccc3)c12` (centres unmarked) [Example 70, [6-(4-Hydroxy-phenyl)-3-methyl-1H-pyrazolo[3,4-b]pyridin-4-yl]-(5-methyl-2-phenyl-piperazin-1-yl)-methanone] was tested, and the inhibition at 1.14 µM was 92%.
Work on `CCC[C@@H]1CN(C(=O)c2cc(-c3ccc(O)cc3F)nc3[nH]nc(C)c23)CCN1` [Example 420, [6-(2-Fluoro-4-hydroxy-phenyl)-3-methyl-1H-pyrazolo[3,4-b]pyridin-4-yl]-((R)-3-propyl-piperazin-1-yl)-methanone] yielded an inhibition at 1.14 µM of 80%.
`Cc1n[nH]c2nc(-c3ccc(O)cc3)cc(C(=O)N3CCNCC3c3cccc(Br)c3)c12` (centres unmarked) [Example 101, [2-(3-Bromo-phenyl)-piperazin-1-yl]-[6-(4-hydroxy-phenyl)-3-methyl-1H-pyrazolo[3,4-b]pyridin-4-yl]-methanone] showed an inhibition at 1.14 µM of 99%.
`Cc1n[nH]c2nc(-c3ccc(O)c(F)c3)cc(C(=O)N3CCN[C@H](C)C3)c12` [Example 337, [6-(3-Fluoro-4-hydroxy-phenyl)-3-methyl-1H-pyrazolo[3,4-b]pyridin-4-yl]-((R)-3-methyl-piperazin-1-yl)-methanone] showed an inhibition at 1.14 µM of 93%.
In the case of `Cc1n[nH]c2nc(-c3ccc(O)cc3)cc(C(=O)NC(CN)c3ccc(F)cc3)c12` (centres unmarked) [Example 107, 6-(4-Hydroxy-phenyl)-3-methyl-1H-pyrazolo[3,4-b]pyridine-4-carboxylic acid [2-amino-1-(4-fluoro-phenyl)-ethyl]-amide], the inhibition at 1.14 µM is reported as 83%.
In the case of `CC[C@H]1CNCCN1C(=O)c1cc(-c2ccc(O)cc2)nc2[nH]nc(C)c12` [Example 20, ((S)-2-Ethyl-piperazin-1-yl)-[6-(4-hydroxy-phenyl)-3-methyl-1H-pyrazolo[3,4-b]pyridin-4-yl]-methanone], the inhibition at 1.14 µM is reported as 110%.
Compound `CCC1(CC)CNC(C)(C)CN1C(=O)c1cc(-c2ccc(O)cc2F)nc2[nH]nc(C)c12` [Example 450, (2,2-Diethyl-5,5-dimethyl-piperazin-1-yl)-[6-(2-fluoro-4-hydroxy-phenyl)-3-methyl-1H-pyrazolo[3,4-b]pyridin-4-yl]-methanone] has an inhibition at 1.14 µM of 100%.
`Cc1n[nH]c2nc(-c3ccc(O)cc3)cc(C(=O)N3CCNCC3c3ccc(Cl)c(Cl)c3)c12` (centres unmarked) [Example 29, [2-(3,4-Dichloro-phenyl)-piperazin-1-yl]-[6-(4-hydroxy-phenyl)-3-methyl-1H-pyrazolo[3,4-b]pyridin-4-yl]-methanone] showed an inhibition at 1.14 µM of 99%.
With `Cc1n[nH]c2nc(-c3ccc(O)cc3)cc(C(=O)NCC3CCNC3)c12` (centres unmarked) [Example 216, 6-(4-Hydroxy-phenyl)-3-methyl-1H-pyrazolo[3,4-b]pyridine-4-carboxylic acid (pyrrolidin-3-ylmethyl)-amide] the inhibition at 1.14 µM was 92%.
